Test results from PubChem BioAssay (NCI).
Values joined by “and” are separate entries in the source; they are usually repeats but may differ in a detail not shown here. Identical values can stand only once.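 How tested: cells in 96-well plates exposed to compound for 48 hours at five concentrations. GI50 marks 50% less growth. TGI marks complete inhibition of growth.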

Columns and labels:
Test in all cases: NCI tumour cell line growth inhibition, 48 h
[1] = system: UACC-257 melanoma
[2] = system: U251 CNS
[3] = system: UACC-62 melanoma
[4] = system: SK-MEL-2 melanoma
[5] = system: LOX IMVI melanoma
[6] = system: A549 NSCLC
[7] = system: NCI-H460 lung
[8] = system: SF-268 CNS
[9] = system: M14 melanoma
[10] = system: NCI-H23 lung

SMILES | GI50 [1] [µM] | TGI [1] | GI50 [2] [µM] | TGI [2] | GI50 [3] [µM] | TGI [3] [µM] | GI50 [4] [µM] | TGI [4] | GI50 [5] [µM] | TGI [5] [µM] | GI50 [6] [µM] | TGI [6] | GI50 [7] [µM] | TGI [7] [µM] | GI50 [8] [µM] | TGI [8] | GI50 [9] [µM] | TGI [9] | GI50 [10] [µM] | TGI [10]
COc1cc(/C=C/C(=O)c2ccc(Nc3ncnc4ccccc34)cc2)cc(OC)c1 | 9.7 | 34.1 µM | 2.24 | 6.75 µM | 7.7 | 27.7 | 16.2 | 57.7 µM | 1.85 | 4.16 | 3.2 | 14.4 µM | 14.2 | > 100 | 3.06 | 12.2 µM | 3.95 | 14.6 µM | 5.08 | 38.2 µM
COc1cc2ccc3c4c(OC)cc(OC)c(OC)c4c(=O)n(C)c3c2cc1OC | 3.09 | 16.7 µM and > 49.2 µM | 0.299 | 3.71 µM and 10.6 µM | > 16.7 | > 47.3 | 3.29 | 16.7 µM and > 47.6 µM | 1.53 | 3.8 | 1.18 | 16.7 µM and > 35.8 µM |  | > 33.5 | 1.13 | 10.7 µM and > 21.2 µM | 2.28 | 7.91 µM and > 33.9 µM | 2.09 | 16.7 µM and > 46 µM
CCOC(=O)c1c(-c2ccccc2)[n+](=O)c2ccc(Cl)cc2n1[O-] | 4.06 | 16.6 µM | 2.68 | 8.57 µM | 12.5 | 25.4 | 40 | > 100 µM | 1.66 | 3.91 | 8.46 | 20.6 µM | 5.36 | 17.9 | 4.28 | 32.2 µM | 10.1 | 21.7 µM | 11.2 | 23.4 µM
COc1ccc2c(c1)CCc1c(-c3noc4c3CCc3cc(OC)ccc3-4)noc1-2 |  | > 100 µM |  | > 100 µM |  | > 100 |  | > 100 µM |  | > 100 |  | > 100 µM |  | > 100 |  | > 100 µM |  | > 100 µM |  | > 100 µM
C=C1C(=O)O[C@H]2[C@H]1CC/C(COC(=O)CCCCCCCCC(=O)OC/C1=C/CC[C@@]3(C)O[C@H]3[C@H]3OC(=O)C(=C)[C@@H]3CC1)=C\CC[C@@]1(C)O[C@@H]21 | 2.25 | 4.41 µM | 1.96 | 3.82 µM | 1.99 | 4.25 | 2.8 | 8.2 µM | 1.62 | 3.08 | 6.63 | 22.1 µM | 2.14 | 4.4 | 1.86 | 3.84 µM | 1.63 | 3.41 µM | 2 | 4.25 µM
C[C@@H](CO)OCOCc1ccccc1 |  | > 100 µM |  | > 100 µM |  | > 100 |  | > 100 µM |  | > 100 |  | > 100 µM |  | > 100 |  | > 100 µM |  | > 100 µM |  | > 100 µM
CC(C)NCC(O)COC(=O)c1cccs1 (stereo not drawn) |  | > 100 µM |  |  |  | > 100 |  | > 100 µM |  | > 100 |  | > 100 µM |  | > 100 |  | > 100 µM |  | > 100 µM |  | > 100 µM
COC(=O)C1=CN=C(C(=O)OC)NN1 |  | > 100 µM |  | > 100 µM |  | > 100 |  | > 100 µM |  |  |  | > 100 µM |  | > 100 |  | > 100 µM |  | > 100 µM |  | > 100 µM
CCc1ccccc1NC(=O)CCc1n[nH]c(=S)o1 |  | > 100 µM |  | > 100 µM |  | > 100 |  |  |  |  |  | > 100 µM |  | > 100 |  | > 100 µM |  | > 100 µM |  | > 100 µM
Cn1cccc1-c1cc(-c2cccs2)[nH]c(=O)c1C#N | > 100 | > 100 µM | > 100 | > 100 µM | 73.1 | > 100 | > 100 | > 100 µM | > 100 | > 100 | > 100 | > 100 µM | 69.6 | > 100 | 20.6 | > 100 µM |  |  | > 100 | > 100 µM
COC(=O)C(C(=O)C(=O)NC1=C(Cl)C(=O)c2ccccc2C1=O)c1csc(-n2nc(-c3ccccc3)cc2-c2ccccc2)n1 (stereo not drawn) |  | > 100 µM |  | > 100 µM |  | > 100 |  |  |  | > 100 |  | > 100 µM |  | > 100 |  | > 100 µM |  | > 100 µM |  | > 100 µM
NC(=O)N/N=C(\C(=O)C(=O)Nc1ccc(Cl)c(C(F)(F)F)c1)c1nc2ccc(C(=O)c3ccccc3)cc2[nH]c1=O |  | > 100 µM |  | > 100 µM |  | > 100 |  | > 100 µM |  |  |  | > 100 µM |  | > 100 |  | > 100 µM |  | > 100 µM |  | > 100 µM
N/C(=N\N=C\c1cccs1)NO |  | > 100 µM |  | > 100 µM |  | 51 |  | > 100 µM |  |  |  | > 100 µM |  | > 100 |  | > 100 µM |  | > 100 µM |  | > 100 µM
O=C1C(=O)N(C(=O)c2ccc(Cl)c(Cl)c2)c2ccc(Cl)cc21 |  |  |  | > 100 µM |  | > 100 |  |  |  | > 100 |  | > 100 µM |  | > 100 |  | > 100 µM |  | > 100 µM |  | > 100 µM
Cc1ccc([N+](=O)[O-])cc1NC(=O)C(=O)Cc1occc(=O)c1O |  |  |  | > 100 µM |  | > 100 |  |  |  | > 100 |  | > 100 µM |  | > 100 |  | > 100 µM |  |  |  | 
O=C(/C=C\c1cccc2ccccc12)c1cccs1 |  | 26.1 µM |  | 16.5 µM |  | 21.5 |  |  |  |  |  | 34.5 µM |  | 27.7 |  | 26.1 µM |  | 28.3 µM |  | 34.8 µM
Oc1ccc(CNCc2ccccc2)c2cccnc12 |  | 0.816 µM |  | 2.77 µM |  | > 34.8 |  |  |  | > 100 |  | > 100 µM |  | 0.184 |  | > 65.6 µM |  | 12 µM |  | > 100 µM
O=C(O)c1ccc(O)c(N=Nc2cc(S(=O)(=O)O)c3ccccc3c2O)c1 |  | > 10 µM |  | > 100 µM |  |  |  | > 10 µM |  | > 100 |  | > 100 µM |  | > 100 |  | > 10 µM |  |  |  | > 100 µM
N=C1N(c2ccccc2)C(=O)C23CCCC2C13N1CCOCC1 (stereo not drawn) |  | > 100 µM |  | > 100 µM |  | > 100 |  | > 100 µM |  |  |  | > 100 µM |  | > 100 |  | > 100 µM |  | > 100 µM |  | > 100 µM
